Where “and” joins values, the source holds several entries; their conditions need not be identical. Equal entries are not always repeated. Inconclusive results and toxic doses are left out.

The test system of this test is BDF1 mice, B16 melanoma ip, median survival T/C. As to the kind of experiment: NCI In Vivo Anticancer Drug Screen. Data for tumor model B16 Melanoma (intraperitoneal) in B6D2F1 (BDF1) mice. The following applies: endpoint: median survival time, higher = longer survival. Summed up: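 Survival or tumor size is measured after treatment of tumor-bearing mice and normalised to the vehicle-treated control group.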

Where [1] appears, read: dose: 6.25 mg/kg/injection, schedule: Q01DX009 (ip), vehicle: saline.
The mark [2] stands for this setting: dose: 50.0 mg/kg/injection, schedule: Q01DX009 (ip), vehicle: Klucel (hydroxypropylcellulose) (HPC).
[3] abbreviates: dose: 100.0 mg/kg/injection, schedule: Q01DX009 (ip), vehicle: Klucel (hydroxypropylcellulose) (HPC).
[4] abbreviates: dose: 200.0 mg/kg/injection, schedule: Q01DX009 (ip), vehicle: Klucel (hydroxypropylcellulose) (HPC).
[5] abbreviates: dose: 400.0 mg/kg/injection, schedule: Q01DX009 (ip), vehicle: Klucel (hydroxypropylcellulose) (HPC).
The mark [6] stands for this setting: dose: 6.25 mg/kg/injection, schedule: Q01DX009 (ip), vehicle: Klucel (hydroxypropylcellulose) (HPC).
Where [7] appears, read: dose: 12.5 mg/kg/injection, schedule: Q01DX009 (ip), vehicle: Klucel (hydroxypropylcellulose) (HPC).
[8] abbreviates: dose: 50.0 mg/kg/injection, schedule: Q04DX003 (ip), vehicle: Klucel (hydroxypropylcellulose) (HPC).
The mark [9] stands for this setting: dose: 100.0 mg/kg/injection, schedule: Q04DX003 (ip), vehicle: Klucel (hydroxypropylcellulose) (HPC).
Where [10] appears, read: dose: 200.0 mg/kg/injection, schedule: Q04DX003 (ip), vehicle: Klucel (hydroxypropylcellulose) (HPC).
Setting [11] is: dose: 100.0 mg/kg/injection, schedule: Q01DX009 (ip), vehicle: saline with Tween-80.
The mark [12] stands for this setting: dose: 200.0 mg/kg/injection, schedule: Q01DX009 (ip), vehicle: saline with Tween-80.
Where [13] appears, read: dose: 400.0 mg/kg/injection, schedule: Q01DX009 (ip), vehicle: saline with Tween-80.
The mark [14] stands for this setting: dose: 25.0 mg/kg/injection, schedule: Q01DX009 (ip), vehicle: Klucel (hydroxypropylcellulose) (HPC).

With `Cc1cc(C)c(COCc2cc(C)c(C)cc2C)cc1C`, the T/C (dose: 50.0 mg/kg/injection, schedule: Q01DX009 (ip), vehicle: water) was 95 % of control and the T/C (dose: 100.0 mg/kg/injection, schedule: Q01DX009 (ip), vehicle: water) was 95 % of control.
Regarding `CCOC(=O)C(NC(=O)C(Cc1ccc(N(CCCl)CCCl)cc1)NC(C)=O)C(C)C` (centres undefined), the T/C by setting is: (dose: 1.56 mg/kg/injection, schedule: Q01DX009 (ip), vehicle: saline) 99 % of control; (dose: 3.13 mg/kg/injection, schedule: Q01DX009 (ip), vehicle: saline) 98 % of control; under setting [1], 102 % of control; (dose: 12.5 mg/kg/injection, schedule: Q04DX003 (ip), vehicle: saline) 105 % of control; (dose: 25.0 mg/kg/injection, schedule: Q04DX003 (ip), vehicle: saline) 97 % of control; (dose: 50.0 mg/kg/injection, schedule: Q04DX003 (ip), vehicle: saline) 102 % of control.
With `CC1(C)CC(O)(Cc2ccccc2)C(=O)c2ccccc21` (centres undefined), the T/C is, setting by setting: under setting [2], 94 % of control; under setting [3], 94 % of control; under setting [4], 99 % of control; under setting [5], 97 % of control.
Regarding `CC(=O)Nc1ccc(Cl)c(Cl)c1`, the T/C was 116 % of control under setting [2] and 121 % of control under setting [3].
On to `N#Cc1cn(C2OC(CO)C(O)C2O)c2ncnc(N)c12` (centres undefined), for which the T/C (dose: 0.06 mg/kg/injection, schedule: Q01DX009 (ip), vehicle: saline) was 120 % of control; the T/C (dose: 0.12 mg/kg/injection, schedule: Q01DX009 (ip), vehicle: saline) is 118 % of control; the T/C (dose: 0.25 mg/kg/injection, schedule: Q01DX009 (ip), vehicle: saline) is 105 % of control.
For `CNC(C)CC1CCCCC1` (centres undefined), the T/C reads like this: (dose: 3.12 mg/kg/injection, schedule: Q01DX009 (ip), vehicle: saline) 100 % of control; under setting [1], 100 % of control; (dose: 12.5 mg/kg/injection, schedule: Q01DX009 (ip), vehicle: saline) 100 % of control; (dose: 25.0 mg/kg/injection, schedule: Q01DX009 (ip), vehicle: saline) 95 % of control.
Consider `CCC[CH2][Sn]1([CH2]CCC)[O]OC(c2ccc(C)cc2)[O]1` (centres undefined), for which the T/C by setting is: (dose: 0.38 mg/kg/injection, schedule: Q01DX009 (ip), vehicle: saline with Tween-80) 96 % of control; (dose: 0.75 mg/kg/injection, schedule: Q01DX009 (ip), vehicle: saline with Tween-80) 96 % of control; (dose: 1.5 mg/kg/injection, schedule: Q01DX009 (ip), vehicle: saline with Tween-80) 101 % of control; (dose: 3.13 mg/kg/injection, schedule: Q01DX009 (ip), vehicle: saline with Tween-80) 115 % of control.
For the compound `COc1c(I)c2c(c(OC)c1OC)-c1ccc(OC)c(=O)cc1C(NC(C)=O)CC2` (centres undefined), the T/C is 104 % of control (dose: 0.78 mg/kg/injection, schedule: Q01DX009 (ip), vehicle: Klucel (hydroxypropylcellulose) (HPC)); 104 % of control and 124 % of control (dose: 1.56 mg/kg/injection, schedule: Q01DX009 (ip), vehicle: Klucel (hydroxypropylcellulose) (HPC)); 112 % of control (dose: 3.12 mg/kg/injection, schedule: Q01DX009 (ip), vehicle: Klucel (hydroxypropylcellulose) (HPC)); 121 % of control under setting [6]; 112 % of control under setting [7].
On to `COc1ccc(-c2cc(=O)c3c(ccc4ccccc43)o2)cc1`, for which the T/C by setting is: under setting [3], 94 % of control; under setting [4], 100 % of control; under setting [5], 102 % of control.
For the compound `CCN(CC)CCOc1cc(C)ccc1C(C)C`, the T/C reads like this: under setting [2], 111 % of control; under setting [8], 95 % of control; under setting [9], 97 % of control; under setting [10], 86 % of control.
Consider `CCOC(=O)C(=CN1CCCC1)C(=O)OCC`, for which the T/C was 102 % of control under setting [11]; 120 % of control (dose: 100.0 mg/kg/injection, schedule: Q04DX003 (ip), vehicle: saline with Tween-80); 105 % of control under setting [12]; 117 % of control (dose: 200.0 mg/kg/injection, schedule: Q04DX003 (ip), vehicle: saline with Tween-80); 91 % of control under setting [13]; 111 % of control (dose: 400.0 mg/kg/injection, schedule: Q04DX003 (ip), vehicle: saline with Tween-80).
As to `CCCCCCCCCCCCCCCCCCNC(=O)CCl`, the T/C was 93 % of control under setting [2], 93 % of control under setting [3] and 86 % of control under setting [4].
Turning to `COc1c2c(cc3c1OCO3)CCN(C)C2`, the T/C was 95 % of control (dose: 10.0 mg/kg/injection, schedule: Q01DX009 (ip), vehicle: saline); 99 % of control (dose: 20.0 mg/kg/injection, schedule: Q01DX009 (ip), vehicle: saline); 100 % of control (dose: 40.0 mg/kg/injection, schedule: Q01DX009 (ip), vehicle: saline); 91 % of control (dose: 80.0 mg/kg/injection, schedule: Q01DX009 (ip), vehicle: saline).
For the compound `C=C1C(=O)OC2CC(C)C3C=CC(=O)C3CC12` (centres undefined), the T/C reads like this: (dose: 0.5 mg/kg/injection, schedule: Q01DX009 (ip), vehicle: Klucel (hydroxypropylcellulose) (HPC)) 101 % of control; (dose: 1.0 mg/kg/injection, schedule: Q01DX009 (ip), vehicle: Klucel (hydroxypropylcellulose) (HPC)) 109 % of control; (dose: 2.0 mg/kg/injection, schedule: Q01DX009 (ip), vehicle: Klucel (hydroxypropylcellulose) (HPC)) 101 % of control.
For `O=C(Nc1ccc(Cl)cc1)OCCN1CCOCC1`, the T/C under setting [11] was 110 % of control, the T/C under setting [12] is 110 % of control and the T/C under setting [13] was 97 % of control.
As to `CCCCCCCCCCCCNC(=O)Nc1cccc(C)c1C`, the T/C reads like this: under setting [3], 100 % of control; under setting [4], 100 % of control; under setting [5], 96 % of control.
With `O=C(Cl)C1CC2c3ccccc3C1([N+](=O)[O-])c1ccccc12` (centres undefined), the T/C under setting [8] was 94 % of control, the T/C under setting [9] is 100 % of control and the T/C under setting [10] was 102 % of control.
For the compound `O=C1C(Cl)=C(Nc2ccc(C(=O)Nc3ccc4cc(S(=O)(=O)O)cc(S(=O)(=O)O)c4c3)cc2)C(=O)C(Cl)=C1Nc1ccc(C(=O)Nc2ccc3cc(S(=O)(=O)O)cc(S(=O)(=O)O)c3c2)cc1`, the T/C is, setting by setting: (dose: 50.0 mg/kg/injection, schedule: Q01DX009 (ip), vehicle: saline) 109 % of control; (dose: 100.0 mg/kg/injection, schedule: Q01DX009 (ip), vehicle: saline) 102 % of control; (dose: 200.0 mg/kg/injection, schedule: Q01DX009 (ip), vehicle: saline) 100 % of control.
For `CCCCCCC(=O)/C=C/c1cccc(OCOCC)c1`, the T/C is 99 % of control (dose: 12.5 mg/kg/injection, schedule: Q01DX009 (ip), vehicle: saline with Tween-80); 94 % of control (dose: 25.0 mg/kg/injection, schedule: Q01DX009 (ip), vehicle: saline with Tween-80); 102 % of control (dose: 50.0 mg/kg/injection, schedule: Q01DX009 (ip), vehicle: saline with Tween-80); 98 % of control under setting [11].
For the compound `CCCCCCCCCCCCCCCCCC(=O)NN`, the T/C is, setting by setting: under setting [7], 103 % of control; under setting [14], 98 % of control; under setting [2], 105 % of control; (dose: 100.0 mg/kg/injection, schedule: Q01DX009 (ip), vehicle: carboxymethylcellulose (CMC)) 94 % of control.
On to `O=S(=O)(O)O.[NH-]CC1(C[NH-])CCCCC1.[Pt+2]`, for which the T/C (dose: 8.0 mg/kg/injection, schedule: Q04DX003 (ip), vehicle: dextrose) was 161 % of control.
As to `CCO/C=C1\SC(=S)N(c2cccc(O)c2)C1=O`, the T/C was 102 % of control under setting [14], 102 % of control under setting [2] and 101 % of control under setting [3].
On to `O=C(Nc1ccccc1)OCC(Cl)(Cl)Cl`, for which the T/C under setting [3] was 114 % of control, the T/C under setting [4] was 108 % of control and the T/C under setting [5] is 102 % of control.
Regarding `CCC/C(=C\C(=O)O)CC`, the T/C runs as follows: under setting [3], 108 % of control; under setting [9], 95 % of control; under setting [4], 100 % of control; under setting [10], 95 % of control; under setting [5], 97 % of control.
For the compound `COc1c2ccoc2nc2c(OC)c3c(cc12)OCO3`, the T/C under setting [6] is 89 % of control, the T/C under setting [7] was 100 % of control, the T/C under setting [14] is 95 % of control and the T/C under setting [2] was 92 % of control.

The record behind these values is PubChem BioAssay AID192 (DTP/NCI, 2004).
